{
  "source": "PubChem BioAssay (NCI)",
  "test_in_all_cases": "DTP human tumour cell line panel, 48 h",
  "key": {"HOP-62 NSCLC": {"tested_on": "HOP-62 NSCLC"}, "NCI-H460 lung": {"tested_on": "NCI-H460 lung"}, "SF-539 CNS": {"tested_on": "SF-539 CNS"}, "MCF7 breast": {"tested_on": "MCF7 breast"}, "M14 melanoma": {"tested_on": "M14 melanoma"}, "HS 578T breast": {"tested_on": "HS 578T breast"}, "OVCAR-3 ovarian": {"tested_on": "OVCAR-3 ovarian"}, "HCT-116 colon": {"tested_on": "HCT-116 colon"}, "ACHN renal": {"tested_on": "ACHN renal"}, "UACC-257 melanoma": {"tested_on": "UACC-257 melanoma"}, "UACC-62 melanoma": {"tested_on": "UACC-62 melanoma"}, "A549 NSCLC": {"tested_on": "A549 NSCLC"}, "HCT-15 colon": {"tested_on": "HCT-15 colon"}, "MDA-MB-231 breast": {"tested_on": "MDA-MB-231 breast"}, "SN12C renal": {"tested_on": "SN12C renal"}, "IGROV1 ovarian": {"tested_on": "IGROV1 ovarian"}, "SNB-19 CNS": {"tested_on": "SNB-19 CNS"}, "MDA-MB-435": {"tested_on": "MDA-MB-435"}, "LOX IMVI melanoma": {"tested_on": "LOX IMVI melanoma"}, "BT-549 breast": {"tested_on": "BT-549 breast"}, "MOLT-4 leukemia": {"tested_on": "MOLT-4 leukemia"}, "HL-60(TB) leukemia": {"tested_on": "HL-60(TB) leukemia"}, "K-562 leukemia": {"tested_on": "K-562 leukemia"}, "786-0 renal": {"tested_on": "786-0 renal"}, "A498 renal": {"tested_on": "A498 renal"}, "SR leukemia": {"tested_on": "SR leukemia"}, "SK-MEL-5 melanoma": {"tested_on": "SK-MEL-5 melanoma"}, "SK-MEL-28 melanoma": {"tested_on": "SK-MEL-28 melanoma"}},
  "note": "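48-hour exposure; five concentrations; linearly interpolated endpoints. Here, GI50 denotes the concentration required for 50% inhibition of growth. TGI: total growth inhibition.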",
  "data": [
    {"compound": "CC(C)Oc1ccc2cc(-c3nn(CC4CCNCC4)c4ncnc(N)c34)ccc2c1", "values": [
      {"measurement": "GI50", "setting": "HOP-62 NSCLC", "result": 15.6, "unit": "µM"},
      {"measurement": "TGI", "setting": "HOP-62 NSCLC", "result": 31.4, "unit": "µM"},
      {"measurement": "GI50", "setting": "NCI-H460 lung", "result": 14.9, "unit": "µM"},
      {"measurement": "TGI", "setting": "NCI-H460 lung", "result": 28.5, "unit": "µM"},
      {"measurement": "GI50", "setting": "SF-539 CNS", "result": 12.3, "unit": "µM"},
      {"measurement": "TGI", "setting": "SF-539 CNS", "result": 24.7, "unit": "µM"},
      {"measurement": "GI50", "setting": "MCF7 breast", "result": 5.59, "unit": "µM"},
      {"measurement": "TGI", "setting": "MCF7 breast", "result": 20.1, "unit": "µM"},
      {"measurement": "GI50", "setting": "M14 melanoma", "result": 2.05, "unit": "µM"},
      {"measurement": "TGI", "setting": "M14 melanoma", "result": 4.68, "unit": "µM"},
      {"measurement": "GI50", "setting": "HS 578T breast", "result": 9.4, "unit": "µM"},
      {"measurement": "TGI", "setting": "HS 578T breast", "result": 32.2, "unit": "µM"},
      {"measurement": "GI50", "setting": "OVCAR-3 ovarian", "result": 12.5, "unit": "µM"},
      {"measurement": "TGI", "setting": "OVCAR-3 ovarian", "result": 25, "unit": "µM"},
      {"measurement": "GI50", "setting": "HCT-116 colon", "result": 6.78, "unit": "µM"},
      {"measurement": "TGI", "setting": "HCT-116 colon", "result": 19.8, "unit": "µM"},
      {"measurement": "GI50", "setting": "ACHN renal", "result": 10.5, "unit": "µM"},
      {"measurement": "TGI", "setting": "ACHN renal", "result": 22.2, "unit": "µM"},
      {"measurement": "GI50", "setting": "UACC-257 melanoma", "result": 1.95, "unit": "µM"},
      {"measurement": "TGI", "setting": "UACC-257 melanoma", "result": 3.98, "unit": "µM"},
      {"measurement": "GI50", "setting": "UACC-62 melanoma", "result": 6.41, "unit": "µM"},
      {"measurement": "TGI", "setting": "UACC-62 melanoma", "result": 20.4, "unit": "µM"},
      {"measurement": "GI50", "setting": "A549 NSCLC", "result": 14.5, "unit": "µM"},
      {"measurement": "TGI", "setting": "A549 NSCLC", "result": 28.3, "unit": "µM"},
      {"measurement": "GI50", "setting": "HCT-15 colon", "result": 3.74, "unit": "µM"},
      {"measurement": "TGI", "setting": "HCT-15 colon", "result": 15.8, "unit": "µM"},
      {"measurement": "GI50", "setting": "MDA-MB-231 breast", "result": 3.05, "unit": "µM"},
      {"measurement": "TGI", "setting": "MDA-MB-231 breast", "result": 9.94, "unit": "µM"},
      {"measurement": "GI50", "setting": "SN12C renal", "result": 11.8, "unit": "µM"},
      {"measurement": "TGI", "setting": "SN12C renal", "result": 24.8, "unit": "µM"},
      {"measurement": "GI50", "setting": "IGROV1 ovarian", "result": 11.1, "unit": "µM"},
      {"measurement": "TGI", "setting": "IGROV1 ovarian", "result": 24.8, "unit": "µM"},
      {"measurement": "GI50", "setting": "SNB-19 CNS", "result": 12.7, "unit": "µM"},
      {"measurement": "TGI", "setting": "SNB-19 CNS", "result": 26, "unit": "µM"},
      {"measurement": "GI50", "setting": "MDA-MB-435", "result": 3.86, "unit": "µM"},
      {"measurement": "TGI", "setting": "MDA-MB-435", "result": 14.6, "unit": "µM"},
      {"measurement": "GI50", "setting": "LOX IMVI melanoma", "result": 16.7, "unit": "µM"},
      {"measurement": "TGI", "setting": "LOX IMVI melanoma", "result": 33.8, "unit": "µM"},
      {"measurement": "GI50", "setting": "BT-549 breast", "result": 9.6, "unit": "µM"},
      {"measurement": "TGI", "setting": "BT-549 breast", "result": 22, "unit": "µM"},
      {"measurement": "GI50", "setting": "MOLT-4 leukemia", "result": 1.97, "unit": "µM"},
      {"measurement": "TGI", "setting": "MOLT-4 leukemia", "result": 5.95, "unit": "µM"},
      {"measurement": "GI50", "setting": "HL-60(TB) leukemia", "result": 6.45, "unit": "µM"},
      {"measurement": "TGI", "setting": "HL-60(TB) leukemia", "result": 20.6, "unit": "µM"},
      {"measurement": "GI50", "setting": "K-562 leukemia", "result": 2.04, "unit": "µM"},
      {"measurement": "TGI", "setting": "K-562 leukemia", "result": 6.29, "unit": "µM"},
      {"measurement": "GI50", "setting": "786-0 renal", "result": 11, "unit": "µM"},
      {"measurement": "TGI", "setting": "786-0 renal", "result": 24.4, "unit": "µM"},
      {"measurement": "GI50", "setting": "A498 renal", "result": 14.2, "unit": "µM"},
      {"measurement": "TGI", "setting": "A498 renal", "result": 28.2, "unit": "µM"},
      {"measurement": "GI50", "setting": "SR leukemia", "result": 1.53, "unit": "µM"},
      {"measurement": "TGI", "setting": "SR leukemia", "result": 4.44, "unit": "µM"},
      {"measurement": "GI50", "setting": "SK-MEL-5 melanoma", "result": 11.6, "unit": "µM"},
      {"measurement": "TGI", "setting": "SK-MEL-5 melanoma", "result": 23.8, "unit": "µM"},
      {"measurement": "GI50", "setting": "SK-MEL-28 melanoma", "result": 2.14, "unit": "µM"},
      {"measurement": "TGI", "setting": "SK-MEL-28 melanoma", "result": 5.3, "unit": "µM"}
    ]}
  ]
}
